The assay has as its target T1, FAK enzyme (6 His tagged kinase domain, GenBank NP—722560) (Homo sapiens, UniProt Q05397).
T1 construct: 6 His; made in house; host or cells: insect cell culture infected with baculovirus
The assay is described as follows: In vitro enzyme assay (a): sandwich ELISA of FAK tyrosine kinase activity on polyGAT peptide, TMB colorimetric endpoint. It counts as biochemical. The note with it: in vitro Enzyme Assay test (a); ATP at Km; geometric mean of n > 1 measurements, values marked * tested once. Summed up:
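Recombinant His-tagged FAK kinase domain (baculovirus/insect cells) phosphorylated plate-coated polyGAT with ATP at Km, MgCl2/MnCl2, HEPES pH 7.4, 25 min at room temperature before EDTA stop. Phosphotyrosine detected by HRP-4G10 antibody and TMB absorbance at 450 nm; IC50 from 12-point curve anchored to DMSO and staurosporine controls.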
T1 sequence (Q05397 422-680 limits assumed): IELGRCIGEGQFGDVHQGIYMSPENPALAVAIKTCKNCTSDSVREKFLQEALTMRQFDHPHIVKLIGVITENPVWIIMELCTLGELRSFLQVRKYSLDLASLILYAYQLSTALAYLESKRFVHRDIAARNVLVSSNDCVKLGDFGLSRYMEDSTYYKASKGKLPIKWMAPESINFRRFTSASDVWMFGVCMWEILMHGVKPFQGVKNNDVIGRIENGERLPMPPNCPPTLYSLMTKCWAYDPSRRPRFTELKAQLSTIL
In turn, `CN1CCc2cccc(Nc3cc(Nc4cnn(C5CCNCC5)c4)ncc3F)c2C1=O` [Example 4.17, 8-[[5-Fluoro-2-[[1-(4-piperidyl)pyrazol-4-yl]amino]-4-pyridyl]amino]-2-methyl-3,4-dihydroisoquinolin-1-one] came in with an IC50 of 189 nM.
The result for `CNC(=O)c1cc(N2CCN(C)CC2)ccc1Nc1cc(Nc2cn(C)nc2C)ncc1Cl` [Example 3.37, 2-[[5-chloro-2-[(1,3-dimethylpyrazol-4-yl)amino]-4-pyridyl]amino]-N-methyl-5-(4-methylpiperazin-1-yl)benzamide] reads 1050 nM; that for `CCn1nccc1Nc1cc(Nc2ccccc2C(=O)NC)c(C(F)(F)F)cn1` [Example 8.08, 2-[[2-[(2-ethylpyrazol-3-yl)amino]-5-(trifluoromethyl)-4-pyridyl]amino]-N-methyl-benzamide], 10 nM; that for `CC(=O)N1CCC(n2cc(Nc3cc(Nc4cccc5c4C(=O)N(C)CC5)c(Cl)cn3)cn2)CC1` [Example 3.31, 8-[[2-[[1-(1-acetyl-4-piperidyl)pyrazol-4-yl]amino]-5-chloro-4-pyridyl]amino]-2-methyl-3,4-dihydroisoquinolin-1-one], 171 nM.
Then `CNC(=O)c1ccccc1Nc1cc(Nc2cn(C)nc2C#N)ncc1C(F)(F)F` [Example 12.11, 2-[[2-[(3-cyano-1-methyl-pyrazol-4-yl)amino]-5-(trifluoromethyl)-4-pyridyl]amino]-N-methyl-benzamide], with 15 nM; and `CNC(=O)c1ccccc1Nc1cc(Nc2cnn(C3CCOCC3)c2)ncc1F` [Example 4.09, 2-[[5-fluoro-2-[(1-tetrahydropyran-4-ylpyrazol-4-yl)amino]-4-pyridyl]amino]-N-methyl-benzamide], with 3380 nM; and `CN1CCc2cccc(Nc3cc(Nc4cnn(CC(=O)N5CCCC5)c4)ncc3F)c2C1=O` [Example 4.20, 8-[[5-Fluoro-2-[[1-(2-oxo-2-pyrrolidin-1-yl-ethyl)pyrazol-4-yl]amino]-4-pyridyl]amino]-2-methyl-3,4-dihydroisoquinolin-1-one], with 304 nM.
Then `CNC(=O)c1ccccc1Nc1cc(Nc2cnn(C3CCN(C)CC3)c2)ncc1F` [Example 4.11, 2-[[5-fluoro-2-[[1-(1-methyl-4-piperidyl)pyrazol-4-yl]amino]-4-pyridyl]amino]-N-methyl-benzamide], with 2080 nM; and `CNC(=O)c1ccccc1Nc1cc(Nc2cc(C)nn2C)ncc1C(F)(F)F` [Example 8.02, 2-[[2-[(2,5-dimethylpyrazol-3-yl)amino]-5-(trifluoromethyl)-4-pyridyl]amino]-N-methyl-benzamide], with 8 nM; and `CNC(=O)c1ccc(F)cc1Nc1cc(Nc2cn(C)nc2C)ncc1Cl` [Example 3.42, 2-[[5-chloro-2-[(1,3-dimethylpyrazol-4-yl)amino]-4-pyridyl]amino]-4-fluoro-N-methyl-benzamide], with 5 nM.
For `CNC(=O)c1cc(N2CCN(C)CC2)ccc1Nc1cc(Nc2cc(C)n(C)n2)ncc1Cl` [Example 3.36, 2-[[5-Chloro-2-[(1,5-dimethylpyrazol-3-yl)amino]-4-pyridyl]amino]-N-methyl-5-(4-methylpiperazin-1-yl)benzamide], half-maximal inhibition (IC50) required 249 nM.
Then `Cc1nn(C)cc1Nc1cc(Nc2cccc3c2C(=O)N(C)CC3)c(C(F)(F)F)cn1` [Example 5.01, 8-[[2-[(1,3-dimethylpyrazol-4-yl)amino]-5-(trifluoromethyl)-4-pyridyl]amino]-2-methyl-3,4-dihydroisoquinolin-1-one], with 6 nM; and `CONC(=O)c1ccccc1Nc1cc(Nc2cn(C)nc2C)ncc1Cl` [Example 3.01, 2-[[5-Chloro-2-[(1,3-dimethylpyrazol-4-yl)amino]-4-pyridyl]amino]-N-methoxy-benzamide], with 44 nM; and `CCc1nn(C(C)(C)C)c(Nc2cc(Nc3cccc4c3C(=O)N(C)CC4)c(Cl)cn2)c1C` [Example 6.08, 8-[[2-[(2-tert-butyl-5-ethyl-4-methyl-pyrazol-3-yl)amino]-5-chloro-4-pyridyl]amino]-2-methyl-3,4-dihydroisoquinolin-1-one], with 5620 nM.
On to `CN1CCc2cccc(Nc3cc(Nc4ccnn4C)ncc3Cl)c2C1=O` [Example 6.01, 8-[[5-chloro-2-[(2-methylpyrazol-3-yl)amino]-4-pyridyl]amino]-2-methyl-3,4-dihydroisoquinolin-1-one], for which the concentration for half-maximal inhibition (IC50) came to 6 nM.
Then `Cc1cc(Nc2cc(Nc3cccc4c3C(=O)N(C)CC4)c(Cl)cn2)nn1C` [Example 3.30, 8-[[5-chloro-2-[(1,5-dimethylpyrazol-3-yl)amino]-4-pyridyl]amino]-2-methyl-3,4-dihydroisoquinolin-1-one], with 59 nM.
`CN1CCc2cccc(Nc3cc(Nc4cnn(C)c4)ncc3F)c2C1=O` [Example 4.14, 8-[[5-fluoro-2-[(1-methylpyrazol-4-yl)amino]-4-pyridyl]amino]-2-methyl-3,4-dihydroisoquinolin-1-one] yielded an IC50 of 408 nM.
Then `CNC(=O)c1cccc(F)c1Nc1cc(Nc2cn(C)nc2C)ncc1Cl` [Example 3.39, 2-[[5-Chloro-2-[(1,3-dimethylpyrazol-4-yl)amino]-4-pyridyl]amino]-3-fluoro-N-methyl-benzamide], with 55 nM; and `CNC(=O)c1ccccc1Nc1cc(Nc2cnn(CC(=O)N3CCN(C)CC3)c2)ncc1F` [Example 4.07, 2-[[5-fluoro-2-[[1-[2-(4-methylpiperazin-1-yl)-2-oxo-ethyl]pyrazol-4-yl]amino]-4-pyridyl]amino]-N-methyl-benzamide], with 577 nM; and `CNC(=O)c1ccccc1Nc1cc(Nc2cnn(C)c2)ncc1Cl` [Example 3.11, 2-[[5-chloro-2-[(1-methylpyrazol-4-yl)amino]-4-pyridyl]amino]-N-methyl-benzamide], with 439 nM.
The result for `CON(C)C(=O)c1ccccc1Nc1cc(Nc2cnn(C3CCN(C)CC3)c2)ncc1Cl` [Example 3.20, 2-[[5-Chloro-2-[[1-(1-methyl-4-piperidyl)pyrazol-4-yl]amino]-4-pyridyl]amino]-N-methoxy-N-methyl-benzamide] reads 1230 nM; that for `CNC(=O)c1ccccc1Nc1cc(Nc2cnn(CC(=O)N3CCN(C)CC3)c2)ncc1Cl` [Example 3.07, 2-[[5-chloro-2-[[1-[2-(4-methylpiperazin-1-yl)-2-oxo-ethyl]pyrazol-4-yl]amino]-4-pyridyl]amino]-N-methyl-benzamide], 48 nM.
`CNC(=O)c1ccccc1Nc1cc(Nc2cc(OC)nn2C)ncc1C#N` [Example 1.02, 2-[[5-cyano-2-[(5-methoxy-2-methylpyrazol-3-yl)amino]pyridin-4-yl]amino]-N-methylbenzamide] registered an IC50 of 102 nM.
Then `Cc1nn(C)cc1Nc1cc(Nc2cccc3c2C(=O)N(C)CCO3)c(C(F)(F)F)cn1` [Example 5.03, 6-[[2-[(1,3-dimethylpyrazol-4-yl)amino]-5-(trifluoromethyl)-4-pyridyl]amino]-4-methyl-2,3-dihydro-1,4-benzoxazepin-5-one], with 6 nM; and `Cc1nn(C(C)C)cc1Nc1cc(Nc2cccc3c2C(=O)N(C)CC3)c(Cl)cn1` [Example 13.01, 8-[[5-chloro-2-[(1-isopropyl-3-methyl-pyrazol-4-yl)amino]-4-pyridyl]amino]-2-methyl-3,4-dihydroisoquinolin-1-one], with 13 nM.
Then `CNC(=O)c1ccccc1Nc1cc(Nc2cc(C)n(C)n2)ncc1Cl` [Example 3.10, 2-[[5-chloro-2-[(1,5-dimethylpyrazol-3-yl)amino]-4-pyridyl]amino]-N-methyl-benzamide], with 45 nM; and `CONC(=O)c1c(Nc2cc(Nc3cn(C)nc3C)ncc2C(F)(F)F)cccc1OC` [Example 14.01, 2-[[2-[(1,3-dimethylpyrazol-4-yl)amino]-5-(trifluoromethyl)-4-pyridyl]amino]-N,6-dimethoxy-benzamide], with 4 nM; and `CN1CCc2cccc(Nc3cc(Nc4cn(C)nc4C#N)ncc3Cl)c2C1=O` [Example 12.05, 4-[[5-chloro-4-[(2-methyl-1-oxo-3,4-dihydroisoquinolin-8-yl)amino]-2-pyridyl]amino]-1-methyl-pyrazole-3-carbonitrile], with 20 nM.
The result for `Cc1nn(C)cc1Nc1cc(Nc2cccc3c2C(=O)N(C)CC3)c(C#N)cn1` [Example 1.08, 6-[(1,3-dimethylpyrazol-4-yl)amino]-4-[(2-methyl-1-oxo-3,4-dihydroisoquinolin-8-yl)amino]pyridine-3-carbonitrile] reads 6 nM; that for `CN(C)C(=O)c1nn(C)cc1Nc1cc(Nc2cccc3c2C(=O)N(C)CC3)c(Cl)cn1` [Example 12.02, 4-[[5-chloro-4-[(2-methyl-1-oxo-3,4-dihydroisoquinolin-8-yl)amino]-2-pyridyl]amino]-N,N,1-trimethyl-pyrazole-3-carboxamide], 1360 nM.
In turn, `CN1CCc2cccc(Nc3cc(Nc4cnn(C)c4)ncc3C#N)c2C1=O` [Example 1.04, 4-[(2-Methyl-1-oxo-3,4-dihydroisoquinolin-8-yl)amino]-6-[(1-methylpyrazol-4-yl)amino]pyridine-3-carbonitrile] showed an IC50 of 14 nM.
Then `Cc1cc(Nc2cc(Nc3cccc4c3C(=O)N(C)CC4)c(Cl)cn2)n(C)n1` [Example 6.02, 8-[[5-chloro-2-[(2,5-dimethylpyrazol-3-yl)amino]-4-pyridyl]amino]-2-methyl-3,4-dihydroisoquinolin-1-one], with 7 nM.
Then `CNC(=O)c1ccccc1Nc1cc(Nc2cn(C(C)C)nc2C)ncc1C(F)(F)F` [Example 13.02, 2-[[2-[(1-isopropyl-3-methyl-pyrazol-4-yl)amino]-5-(trifluoromethyl)-4-pyridyl]amino]-N-methyl-benzamide], with 21 nM.

Source of the values: US8569298B2, “Pyridine compounds” (Astrazeneca AB, priority 2008, dated 2013).
